In PubChem BioAssay AID1996:
Converted amounts (≈) assume the structure as drawn.

Details: buffer; pH 7.4; 200.0 µM

First: O=S(=O)(c1cnc[nH]1)N1CCN(c2ccc(F)cc2)CC1
Second: CN1CCN(S(=O)(=O)c2cccc(C(=O)Nc3cccc([N+](=O)[O-])c3)c2)CC1
The solubility kinetic of the first is 10-fold lower: 5.8 µg/mL (≈ 18.7 µM) for the first, 59.7 µg/mL (≈ 148 µM) for the second.

`COc1ccc(C2=NOC(C(=O)Nc3ccc4c(c3)OCO4)C2)cc1` (stereo not given) and `CCOc1ccc(NC(=O)NC(C)c2ccc3c(c2)OCO3)cc1` (stereo not given) are within 1.5-fold of each other in solubility kinetic: 1.6 µg/mL (≈ 4.7 µM) for the first, 1.9 µg/mL (≈ 5.79 µM) for the second.

First: Cc1cccc(N2C(=O)CC(n3ccnc3)C2=O)c1C (stereo not given)
Second: Cc1ccccc1/C=C/C12NC(=O)CN1c1ccccc1C2(C)C (stereo not given)
The solubility kinetic of the first is 33-fold higher: 32.9 µg/mL (≈ 122 µM) for the first, 1 µg/mL (≈ 3.14 µM) for the second.

`COc1ccc(C2=NC(C)(C)Cc3cc(OC)c(OC)cc32)cc1` and `COc1ccc(CCNCc2ccc(C)s2)cc1OC.Cl` cannot be ordered by solubility kinetic: over 48.8 µg/mL for the first, over 49.2 µg/mL for the second.

First: CCOC(=O)c1c(C)oc2c1c(C=NC1CCS(=O)(=O)C1)c(O)c1ccccc12 (stereo not given)
Second: CCCCN(C(=O)c1ccco1)C1CCS(=O)(=O)C1 (stereo not given)
The solubility kinetic of the first is lower: under 0.9 µg/mL for the first, over 42.8 µg/mL for the second.

`O=C(Nc1ccc(Cl)cc1)C1CCN(C(=O)c2ccco2)CC1` and `O=C(Nc1ccc(CN2CCOCC2)cc1)c1ccc(F)cc1` cannot be ordered by solubility kinetic: over 49.9 µg/mL for the first, over 47.2 µg/mL for the second.

First: O=C(c1ccccc1)N1CCCCC(Cl)C1=O (stereo not given)
Second: O=C(c1ccc([N+](=O)[O-])cc1)N1CCN=C1SCc1ccccc1
The solubility kinetic of the first is higher: over 37.8 µg/mL for the first, 17.4 µg/mL (≈ 51 µM) for the second.

Compared with `O=c1[nH]cnc(O)c1C(c1ccc(F)cc1)c1c(O)nc[nH]c1=O`, `COc1ccc(N=C(C)c2c(O)[nH]c(=O)[nH]c2=O)cc1` is lower in solubility kinetic: over 49.5 µg/mL for the first, 5 µg/mL (≈ 18.2 µM) for the second.

`O=[N+]([O-])c1cccc(CN2CC=C(c3ccc(F)cc3)CC2)c1` and `N/C(=N\OC(=O)c1ccccc1F)c1ccc([N+](=O)[O-])cc1` are within 1.5-fold of each other in solubility kinetic: 3.3 µg/mL (≈ 10.6 µM) for the first, 2.3 µg/mL (≈ 7.58 µM) for the second.

Going from `CS(=O)(=O)N(CC(=O)Nc1ccccc1F)C1CCCCC1` to `O=C(CN1C(=O)NC2NC(=O)NC21)N/N=C/c1ccccc1F` (stereo not given), the solubility kinetic rises from 47.3 µg/mL (≈ 144 µM) to over 48 µg/mL.

Compared with `CCOC(=O)C(=O)c1c(-c2ccccc2)nc2ccccn12`, `Cc1ccccc1NC(=O)CC(=O)c1ccccc1` is higher in solubility kinetic: 33.7 µg/mL (≈ 115 µM) for the first, over 38 µg/mL for the second.

Compared with `O=C(Nc1cscc1S(=O)(=O)c1ccccc1)c1ccccc1Cl`, `COc1ccccc1NC(=O)c1cc(Cl)nc2ccccc12` is 3-fold lower in solubility kinetic: 10.3 µg/mL (≈ 27.3 µM) for the first, 3.4 µg/mL (≈ 10.9 µM) for the second.

Compared with `Cc1cccc(NC(=O)c2ccc3c(c2)OCCO3)c1`, `O=C(Nc1ccc(F)cc1F)c1ccc2c(c1)OCCO2` is 2.5-fold lower in solubility kinetic: 35.5 µg/mL (≈ 132 µM) for the first, 14 µg/mL (≈ 48.1 µM) for the second.

Compared with `Cc1ccc(NC(=O)C2COc3ccccc3O2)cc1` (stereo not given), `CC(=O)c1cccc(NC(=O)C2COc3ccccc3O2)c1` (stereo not given) is 3.3-fold higher in solubility kinetic: 13.3 µg/mL (≈ 49.4 µM) for the first, 44.1 µg/mL (≈ 148 µM) for the second.

`Cc1c(Cl)cccc1NC(=O)C1C2C=CC(C2)C1C(=O)O` (stereo not given) and `COc1ccccc1NC(=O)C1=C(C)NC(=O)NC1c1ccco1` (stereo not given) cannot be ordered by solubility kinetic: over 45.9 µg/mL for the first, over 49.1 µg/mL for the second.

`CCC(C)NC(=O)C1CC(=O)N(CCc2ccc(F)cc2)C1` (stereo not given) and `CCOC(=O)[C@H](CCc1ccccc1)N[C@H]1CCc2ccccc2N(CC(=O)O)C1=O.Cl` cannot be ordered by solubility kinetic: over 46 µg/mL for the first, over 69.1 µg/mL for the second.

First: CCOCCCNC(=O)c1c[nH]c2cc(OC)ccc2c1=O
Second: COc1ccc(C(=O)NCCc2ccccc2)cc1OC
The solubility kinetic of the first is higher: over 45.7 µg/mL for the first, 40.1 µg/mL (≈ 141 µM) for the second.

Compared with `COc1ccccc1NC(=O)CCN1C(=O)C2CC=CCC2C1=O` (stereo not given), `COc1ccc(NC(=O)N2CCc3ccccc3C2)cc1` is lower in solubility kinetic: over 49.3 µg/mL for the first, 17.8 µg/mL (≈ 63 µM) for the second.

Compared with `COCCn1c(N)c(Sc2ccc(C)cc2)c(=O)[nH]c1=O`, `Cc1c(C=Nc2ccc(S(=O)(=O)N(C)C)cc2)c(O)[nH]c(=O)c1C#N` is lower in solubility kinetic: over 46.1 µg/mL for the first, 24.7 µg/mL (≈ 68.5 µM) for the second.

First: Cc1ccc2oc(=O)c3cc(C(=O)N4CCN(C)CC4)sc3c2c1
Second: CC(NC(=O)CN1CCN(C(=O)c2cccs2)CC1)c1ccc(F)cc1F (stereo not given)
The solubility kinetic of the first is lower: 11.8 µg/mL (≈ 34.5 µM) for the first, over 59 µg/mL for the second.

Going from `COc1ccccc1OCC(=O)Nc1ccc(S(=O)(=O)N(C)c2ccccc2)cc1` to `CCOP(=O)(c1ccccc1)C(O)c1ccc([N+](=O)[O-])cc1` (stereo not given), the solubility kinetic rises from 2.4 µg/mL (≈ 5.63 µM) to over 48.2 µg/mL.

`O=C1CN(C(=S)Nc2ccc(OC(F)F)cc2)CCN1` and `O=C(CO/N=C/c1ccc(OC(F)F)cc1)NC1CCCC1` cannot be ordered by solubility kinetic: over 45.2 µg/mL for the first, over 46.8 µg/mL for the second.

First: Nc1ccc(-c2ncc(-c3ccccc3)o2)cc1
Second: C(=C\c1ccccc1)/CSc1nc2ncccc2[nH]1
The solubility kinetic of the first is 2.1-fold lower: 4.3 µg/mL (≈ 18.2 µM) for the first, 8.9 µg/mL (≈ 33.3 µM) for the second.

Compared with `O=C(c1cc(-c2ccncc2)nc2ccccc12)N1CCN(c2ncccn2)CC1`, `Cc1ccc(-n2c(CNCc3ccc(F)cc3)nc3ccccc3c2=O)cc1` is 1.6-fold lower in solubility kinetic: 55.4 µg/mL (≈ 140 µM) for the first, 35.1 µg/mL (≈ 94 µM) for the second.

Going from `CCN(CC)S(=O)(=O)c1ccc(OC)c(NC(=O)CSCc2c(C)noc2C)c1` to `COC(=O)c1ccc(S(=O)(=O)NCc2ccco2)o1`, the solubility kinetic falls from over 66.2 µg/mL to 38.8 µg/mL (≈ 136 µM).

Going from `N#Cc1ccc(COC(=O)c2cccnc2Cl)cc1` to `CNC(=O)c1ccc(CNC(=O)OCc2ccccc2)cc1`, the solubility kinetic rises from 26.9 µg/mL (≈ 98.6 µM) to over 44.8 µg/mL.

First: Cc1nc2ccc(NC(=O)CCC3CCCC3)cc2s1
Second: NS(=O)(=O)c1ccc(CNC(=S)NC2CCCC2)cc1
The solubility kinetic of the first is 5.3-fold lower: 8.9 µg/mL (≈ 30.9 µM) for the first, 46.9 µg/mL (≈ 150 µM) for the second.

`CCSc1nc2ccccc2n1CC(=O)O` and `OC(CN1CCCCC1)Cn1c2ccccc2c2ccccc21` (stereo not given) cannot be ordered by solubility kinetic: over 35.4 µg/mL for the first, 45.1 µg/mL (≈ 146 µM) for the second.

`CCOC(=O)c1cnc2cc(F)c(F)cc2c1N1CCOCC1` and `CNC(=O)COC(=O)CCC(=O)c1ccc(Cl)cc1` are within 1.5-fold of each other in solubility kinetic: 39.4 µg/mL (≈ 122 µM) for the first, 36.2 µg/mL (≈ 128 µM) for the second.

Going from `OCCOCCOc1cccc2[nH]ccc12` to `CC(NC(=O)c1cccs1)c1ccc(Cl)cc1` (stereo not given), the solubility kinetic falls from 25.9 µg/mL (≈ 117 µM) to 9.8 µg/mL (≈ 36.9 µM) (2.6-fold).
